Source: patent US20040265964A1, “Inducers of recombinant protein expression” (priority 2003, published 2004)

Tests used:
Type in all cases: cell-based, Chinese hamster
[1] = system: fluorescent reporter gene DsRed under the control of an EASE/CMV promoter in CHO cells; test: DsRed fluorescent reporter induction in CHO cell pools, 96 well format; conditions: for increase in DsRed expression per viable cell relative to control: 96 well, 6 days at 31° C.; for effectiveness as inducers of recombinant polypeptide production: compound screening, conditions not given
Description: FIG. 1 is a graph of the Effect of Combinations of Compounds on Induction of Reporter Gene. Pools of cells that expressed a fluorescent marker protein, DsRed, under the control of an EASE/CMV promoter were cultured in 96 well plates at 35° C. for 6 days in the presence of the indicated amount of compound. The amount of fluorescence is plotted as a function of the concentration of compound. Compounds used for induction were hexanohydroxamic acid (HHA) (diamonds), Hexamethylenebisacetamide (HMBA) (squares) and both HHA+HMBA (triangles).
Using a construct that expressed DsRed under the control of a EASE/CMV promoter, including an adenoviral tripartite leader, as an indicator for expression, various compounds were assayed.
Pools of cells were selected in -GHT medium for presence of the expression vector, and then plated in a 96 well format in serum-free medium. Hydrocinnamic acid was added to test wells at 0.5 millimolar, the temperature decreased from 37° C. to 31° C., and culture continued for 6 days at the reduce temperature. DsRed fluorescence was assayed on a Wallac Victor2 multilabel microplate reader (PerkinElmer Life Sciences, Boston, Mass.).

[2] = system: CHO cell line that expresses a soluble form of the IL1-receptor type II; test: IL1RII expression by CHO cell line in shake flasks
Description: The induction capacity of this compound was then tested in a different format on a different recombinant protein. […] Cells were grown in serum-free medium in shake flasks, hydrocinnamic acid was added to a concentration of 0.5 millimolar, and incubation continued at 31° C. for 9 to 10 days.

[3] = system: CHO cell that expresses a soluble form of a TNF receptor, TNFR:Fc; test: TNFR:Fc expression by CHO cells in shake flasks; conditions: 7 days at a reduced temperature
Source text: Another cell line tested was a CHO cell that expresses a soluble form of a TNF receptor, TNFR:Fc (U.S. Pat. No. 5,605,690, incorporated by reference herein). […]

[4] = system: CHO cell pools transfected with an expression vector encoding an antibody against the IL4 receptor; test: Antibody expression by unamplified CHO cell pools, 96 well plates; conditions: for increase in antibody expression relative to control, compound used individually: single compound (HHA 10 micromolar, 3-phenylpropionohydroxamic acid 10 micromolar, HMBA 1 millimolar as in the combinations); for increase in antibody expression relative to control, compound used individually / increase in antibody expression relative to control: 4 days at 37° C.; for increase in antibody expression relative to control: 0.5 mM inducer (per example heading), average over experiments
Description: In addition, CHO cell pools transfected with an expression vector encoding an antibody against the IL4 receptor were tested (see U.S. Pat. No. 5,717,072, incorporated by reference herein). Unamplified pools were plated in serum-free medium in 96 well plates and incubated with inducer for 4 days at 37° C.

[5] = system: fluorescent reporter gene DsRed under the control of an EASE/CMV promoter in CHO cells; test: DsRed fluorescent reporter induction in CHO cell pools, 96 well format; conditions: 6 days at 31° C.
[6] = 0.5 mM compound, average over experiments
[7] = 0.5 millimolar compound, serum-free medium, 31° C. for 9 to 10 days
[8] = 0.5 mM compound, serum-free medium

## CCCCNC(C)=O [N-butylacetamide]
[1]; 1.0 millimolar compound, average of 2 experiments
  increase in DsRed expression per viable cell relative to control: 77%

## CC(CC(=O)O)C(=O)O (centres unmarked) [methylsuccinic acid, reference compound]
[1]
  effectiveness as inducers of recombinant polypeptide production: ineffective

## CCCCCC(=O)NO [HHA, hexanohydroxamic acid]
[2]; 10 micromolar HHA, 31° C. for 9 days
  increase in IL1RII expression relative to control: 19%
[3]; 10 micromolar HHA
  increase in TNFR:Fc expression relative to control cells: 19%
[3]; 20 micromolar HHA
  increase in TNFR:Fc expression relative to control cells: 11%
[4]
  increase in antibody expression relative to control, compound used individually: did not have a significant increase
[5]; 10 micromolar HHA alone
  increase in DsRed expression relative to the control: 48%

## O=C(CCc1ccccc1)NO [3-phenylpropionohydroxamic acid]
[4]
  increase in antibody expression relative to control, compound used individually: not a significant increase

## O=C(O)CCc1ccccc1 [hydrocinnamic acid]
[1]; [6]
  increase in DsRed expression per viable cell relative to control: 60%
[2]; [7]
  increase in IL1RII expression relative to control: 22%
[3]; [8]
  increase in TNFR:Fc expression relative to control cells: 20%
[4]
  increase in antibody expression relative to control: 5%

## O=C(O)CCCCc1ccccc1 [5-phenylvaleric acid]
[1]; [6]
  increase in DsRed expression per viable cell relative to control: 40%
[2]; [7]
  increase in IL1RII expression relative to control: 44%
[3]; [8]
  increase in TNFR:Fc expression relative to control cells: 33%
[4]; 0.5 mM 5-phenylvaleric acid, 37° C., day 3
  increase in antibody expression on day 3: no increase
[4]
  increase in antibody expression relative to control: 40%

## O=C(O)CCCCCC(=O)O [pimelic acid, reference compound]
[1]
  effectiveness as inducers of recombinant polypeptide production: ineffective

## Cc1ccc(CCC(=O)O)cc1 [3-(4-methylphenyl)propionic acid]
[1]; [6]
  increase in DsRed expression per viable cell relative to control: 70%
[2]; [7]
  increase in IL1RII expression relative to control: 15%

## O=C(O)CCCc1ccccc1 [4-phenylbutyric acid]
[1]; [6]
  increase in DsRed expression per viable cell relative to control: 60%
[2]; [7]
  increase in IL1RII expression relative to control: 21%

## CC(=O)NCCCCCCNC(C)=O [HMBA, hexamethylene bisacetamide, reference compound]
[3]; 1.0 millimolar HMBA alone
  increase in TNFR:Fc expression relative to control cells: 14%
[4]
  increase in antibody expression relative to control, compound used individually: not a significant increase
[5]; 1 millimolar HMBA alone
  increase in DsRed expression relative to the control: 20%

## O=C(O)CC(O)(CC(=O)O)C(=O)[O-].[Na+] [sodium dihydrogen citrate, reference compound]
[1]
  effectiveness as inducers of recombinant polypeptide production: ineffective
